Values of other authors, collected in patent US9943402B2, “Micropatterned intraocular implant” (InSight Innovations, LLC, priority 2008, dated 2018).

Tested on: posterior capsule opacification (PCO)
Conditions: topical treatment after phacoemulsification

COc1ccc2c(c1)c(CC(=O)O)c(C)n2C(=O)c1ccc(Cl)cc1 [indomethacin]
inhibition of PCO (in words): do not appear to inhibit PCO

O=C(O)Cc1ccccc1Nc1c(Cl)cccc1Cl [diclofenac]
inhibition of PCO (in words): do not appear to inhibit PCO
